Source: PubChem BioAssay (NCI)
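Cells were grown in 96-well plates and exposed to each compound for 48 hours at five concentrations; endpoints were interpolated linearly between bracketing concentrations, or set to the highest concentration if not reached. TGI: concentration producing complete growth inhibition.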

What was measured:
Experiment in all cases: DTP human tumour cell line panel, 48 h
786-0 renal = tested on: 786-0 renal
A498 renal = tested on: A498 renal
A549 NSCLC = tested on: A549 NSCLC
ACHN renal = tested on: ACHN renal
BT-549 breast = tested on: BT-549 breast
CAKI-1 renal = tested on: CAKI-1 renal
CCRF-CEM leukemia = tested on: CCRF-CEM leukemia
COLO 205 colon = tested on: COLO 205 colon
DU-145 prostate = tested on: DU-145 prostate
EKVX NSCLC = tested on: EKVX NSCLC
HCC-2998 colon = tested on: HCC-2998 colon
HCT-116 colon = tested on: HCT-116 colon
HCT-15 colon = tested on: HCT-15 colon
HL-60(TB) leukemia = tested on: HL-60(TB) leukemia
HOP-62 NSCLC = tested on: HOP-62 NSCLC
HOP-92 NSCLC = tested on: HOP-92 NSCLC
HS 578T breast = tested on: HS 578T breast
HT29 colon = tested on: HT29 colon
IGROV1 ovarian = tested on: IGROV1 ovarian
K-562 leukemia = tested on: K-562 leukemia
KM12 colon = tested on: KM12 colon
LOX IMVI melanoma = tested on: LOX IMVI melanoma
M14 melanoma = tested on: M14 melanoma
MALME-3M melanoma = tested on: MALME-3M melanoma
MCF7 breast = tested on: MCF7 breast
MDA-MB-231 breast = tested on: MDA-MB-231 breast
MDA-MB-435 = tested on: MDA-MB-435
MDA-N = tested on: MDA-N
MOLT-4 leukemia = tested on: MOLT-4 leukemia
NCI-H226 lung = tested on: NCI-H226 lung
NCI-H23 lung = tested on: NCI-H23 lung
NCI-H460 lung = tested on: NCI-H460 lung
NCI-H522 lung = tested on: NCI-H522 lung
NCI/ADR-RES ovarian = tested on: NCI/ADR-RES ovarian
OVCAR-3 ovarian = tested on: OVCAR-3 ovarian
OVCAR-4 ovarian = tested on: OVCAR-4 ovarian
OVCAR-5 ovarian = tested on: OVCAR-5 ovarian
OVCAR-8 ovarian = tested on: OVCAR-8 ovarian
PC-3 prostate = tested on: PC-3 prostate
RPMI-8226 leukemia = tested on: RPMI-8226 leukemia
RXF 393 renal = tested on: RXF 393 renal
SF-268 CNS = tested on: SF-268 CNS
SF-295 CNS = tested on: SF-295 CNS
SF-539 CNS = tested on: SF-539 CNS
SK-MEL-2 melanoma = tested on: SK-MEL-2 melanoma
SK-MEL-28 melanoma = tested on: SK-MEL-28 melanoma
SK-MEL-5 melanoma = tested on: SK-MEL-5 melanoma
SK-OV-3 ovarian = tested on: SK-OV-3 ovarian
SN12C renal = tested on: SN12C renal
SNB-19 CNS = tested on: SNB-19 CNS
SNB-75 CNS = tested on: SNB-75 CNS
SR leukemia = tested on: SR leukemia
SW-620 colon = tested on: SW-620 colon
T-47D breast = tested on: T-47D breast
TK-10 renal = tested on: TK-10 renal
U251 CNS = tested on: U251 CNS
UACC-257 melanoma = tested on: UACC-257 melanoma
UACC-62 melanoma = tested on: UACC-62 melanoma
UO-31 renal = tested on: UO-31 renal

CCN(C(C)=O)c1cnc(/C=N/NC(N)=S)c2ccccc12
TGI (786-0 renal): > 26.6 µM
TGI (A498 renal): > 91.6 µM
TGI (A549 NSCLC): > 88.3 µM
TGI (ACHN renal): > 22.4 µM
TGI (BT-549 breast): > 31.1 µM
TGI (CAKI-1 renal): > 51.9 µM
TGI (CCRF-CEM leukemia): > 100 µM
TGI (COLO 205 colon): > 100 µM
TGI (DU-145 prostate): > 25 µM
TGI (EKVX NSCLC): > 100 µM
TGI (HCC-2998 colon): > 100 µM
TGI (HCT-116 colon): > 100 µM
TGI (HCT-15 colon): > 100 µM
TGI (HL-60(TB) leukemia): > 28.5 µM
TGI (HOP-62 NSCLC): > 60.1 µM
TGI (HOP-92 NSCLC): > 100 µM
TGI (HS 578T breast): > 100 µM
TGI (HT29 colon): > 100 µM
TGI (IGROV1 ovarian): > 100 µM
TGI (K-562 leukemia): > 100 µM
TGI (KM12 colon): > 100 µM
TGI (LOX IMVI melanoma): 10.1 µM
TGI (M14 melanoma): > 30.7 µM
TGI (MALME-3M melanoma): > 100 µM
TGI (MCF7 breast): > 23.8 µM
TGI (MDA-MB-231 breast): > 100 µM
TGI (MDA-MB-435): > 100 µM
TGI (MDA-N): > 100 µM
TGI (MOLT-4 leukemia): > 31.5 µM
TGI (NCI-H226 lung): > 100 µM
TGI (NCI-H23 lung): > 100 µM
TGI (NCI-H460 lung): > 39.1 µM
TGI (NCI-H522 lung): > 36.2 µM
TGI (NCI/ADR-RES ovarian): 58.6 µM
TGI (OVCAR-3 ovarian): > 100 µM
TGI (OVCAR-4 ovarian): > 100 µM
TGI (OVCAR-5 ovarian): > 100 µM
TGI (OVCAR-8 ovarian): > 34.6 µM
TGI (PC-3 prostate): > 100 µM
TGI (RPMI-8226 leukemia): > 100 µM
TGI (RXF 393 renal): > 100 µM
TGI (SF-268 CNS): > 100 µM
TGI (SF-295 CNS): > 68.9 µM
TGI (SF-539 CNS): 13.6 µM
TGI (SK-MEL-2 melanoma): > 100 µM
TGI (SK-MEL-28 melanoma): > 100 µM
TGI (SK-MEL-5 melanoma): > 67.1 µM
TGI (SK-OV-3 ovarian): > 100 µM
TGI (SN12C renal): > 57.6 µM
TGI (SNB-19 CNS): > 100 µM
TGI (SNB-75 CNS): > 100 µM
TGI (SR leukemia): > 65.8 µM
TGI (SW-620 colon): > 100 µM
TGI (T-47D breast): > 100 µM
TGI (TK-10 renal): > 100 µM
TGI (U251 CNS): > 100 µM
TGI (UACC-257 melanoma): > 100 µM
TGI (UACC-62 melanoma): 11 µM
TGI (UO-31 renal): 7.85 µM

CN(C)CCCNc1c(C#N)[n+]([O-])c2cc(Cl)ccc2[n+]1[O-]
TGI (786-0 renal): > 100 µM
TGI (A498 renal): > 52.4 µM
TGI (A549 NSCLC): 31.5 µM
TGI (ACHN renal): 22.2 µM
TGI (BT-549 breast): 31.1 µM
TGI (CAKI-1 renal): > 51.8 µM
TGI (CCRF-CEM leukemia): 42 µM
TGI (COLO 205 colon): 14.6 µM
TGI (DU-145 prostate): > 100 µM
TGI (EKVX NSCLC): 22.5 µM
TGI (HCC-2998 colon): 18.7 µM
TGI (HCT-116 colon): 30 µM
TGI (HCT-15 colon): 18.6 µM
TGI (HL-60(TB) leukemia): 30.3 µM
TGI (HOP-62 NSCLC): > 48.7 µM
TGI (HOP-92 NSCLC): 25.5 µM
TGI (HS 578T breast): > 100 µM
TGI (HT29 colon): > 40 µM
TGI (IGROV1 ovarian): 10.5 µM
TGI (K-562 leukemia): 20.8 µM
TGI (KM12 colon): 26.9 µM
TGI (LOX IMVI melanoma): 56.9 µM
TGI (M14 melanoma): 37.6 µM
TGI (MALME-3M melanoma): 17.4 µM
TGI (MCF7 breast): > 52.7 µM
TGI (MDA-MB-231 breast): 37.2 µM
TGI (MDA-MB-435): > 67.2 µM
TGI (MDA-N): > 59.9 µM
TGI (MOLT-4 leukemia): 20.2 µM
TGI (NCI-H226 lung): 48.5 µM
TGI (NCI-H23 lung): 23.5 µM
TGI (NCI-H460 lung): 13.2 µM
TGI (NCI-H522 lung): 14.1 µM
TGI (NCI/ADR-RES ovarian): > 57.3 µM
TGI (OVCAR-3 ovarian): > 34.9 µM
TGI (OVCAR-4 ovarian): 14.2 µM
TGI (OVCAR-5 ovarian): > 100 µM
TGI (OVCAR-8 ovarian): > 51.3 µM
TGI (PC-3 prostate): > 41.3 µM
TGI (RPMI-8226 leukemia): 26.4 µM
TGI (RXF 393 renal): > 100 µM
TGI (SF-268 CNS): > 64.4 µM
TGI (SF-295 CNS): > 49.1 µM
TGI (SF-539 CNS): 47.4 µM
TGI (SK-MEL-2 melanoma): 36.4 µM
TGI (SK-MEL-28 melanoma): > 100 µM
TGI (SK-MEL-5 melanoma): 10.9 µM
TGI (SK-OV-3 ovarian): > 67.1 µM
TGI (SN12C renal): 53.3 µM
TGI (SNB-19 CNS): > 100 µM
TGI (SNB-75 CNS): > 100 µM
TGI (SR leukemia): 5.28 µM
TGI (SW-620 colon): 37.1 µM
TGI (T-47D breast): 40.7 µM
TGI (TK-10 renal): > 39.9 µM
TGI (U251 CNS): > 66.6 µM
TGI (UACC-257 melanoma): > 50 µM
TGI (UACC-62 melanoma): 17.4 µM
TGI (UO-31 renal): > 46.3 µM

C=CC[C@@]1([C@H](C=C)COCc2ccc(OC)cc2)CC[C@]2(C)OC(C)(C)[C@@H](c3ccccc3)N2C1=S
TGI (786-0 renal): > 100 µM
TGI (A498 renal): > 100 µM
TGI (A549 NSCLC): > 100 µM
TGI (ACHN renal): > 100 µM
TGI (BT-549 breast): > 100 µM
TGI (CAKI-1 renal): > 100 µM
TGI (CCRF-CEM leukemia): > 100 µM
TGI (COLO 205 colon): 41.6 µM
TGI (DU-145 prostate): > 100 µM
TGI (EKVX NSCLC): > 100 µM
TGI (HCC-2998 colon): > 100 µM
TGI (HCT-116 colon): > 100 µM
TGI (HCT-15 colon): > 100 µM
TGI (HL-60(TB) leukemia): > 100 µM
TGI (HOP-62 NSCLC): > 100 µM
TGI (HOP-92 NSCLC): > 100 µM
TGI (HS 578T breast): > 100 µM
TGI (HT29 colon): > 100 µM
TGI (K-562 leukemia): > 100 µM
TGI (KM12 colon): > 100 µM
TGI (LOX IMVI melanoma): > 100 µM
TGI (M14 melanoma): > 100 µM
TGI (MALME-3M melanoma): > 100 µM
TGI (MCF7 breast): > 100 µM
TGI (MDA-MB-231 breast): > 100 µM
TGI (MDA-MB-435): > 100 µM
TGI (MDA-N): > 100 µM
TGI (MOLT-4 leukemia): > 100 µM
TGI (NCI-H226 lung): > 100 µM
TGI (NCI-H23 lung): > 100 µM
TGI (NCI-H460 lung): > 100 µM
TGI (NCI-H522 lung): > 100 µM
TGI (NCI/ADR-RES ovarian): > 100 µM
TGI (OVCAR-3 ovarian): > 100 µM
TGI (OVCAR-4 ovarian): > 100 µM
TGI (OVCAR-5 ovarian): > 100 µM
TGI (OVCAR-8 ovarian): > 100 µM
TGI (PC-3 prostate): > 100 µM
TGI (RPMI-8226 leukemia): > 100 µM
TGI (RXF 393 renal): > 100 µM
TGI (SF-268 CNS): > 100 µM
TGI (SF-295 CNS): > 100 µM
TGI (SF-539 CNS): > 100 µM
TGI (SK-MEL-2 melanoma): 62.3 µM
TGI (SK-MEL-28 melanoma): > 100 µM
TGI (SK-MEL-5 melanoma): 61.8 µM
TGI (SK-OV-3 ovarian): > 100 µM
TGI (SN12C renal): > 100 µM
TGI (SNB-19 CNS): > 100 µM
TGI (SNB-75 CNS): > 100 µM
TGI (SR leukemia): > 100 µM
TGI (SW-620 colon): > 100 µM
TGI (T-47D breast): > 100 µM
TGI (TK-10 renal): > 100 µM
TGI (U251 CNS): > 100 µM
TGI (UACC-257 melanoma): > 100 µM
TGI (UACC-62 melanoma): > 100 µM
TGI (UO-31 renal): > 100 µM
